From patent publication US20250171437A1 (Agios Pharmaceuticals,Inc., priority 2022, published 2025) come the findings set out here.

The first experiment concerns the target T1, human PAH with the R408W mutation (A375 R408W cells) (Homo sapiens, UniProt P00439, R408W).
T1 construct: expressed in transfected cells
T1 sequence (P00439 1-452 R408W): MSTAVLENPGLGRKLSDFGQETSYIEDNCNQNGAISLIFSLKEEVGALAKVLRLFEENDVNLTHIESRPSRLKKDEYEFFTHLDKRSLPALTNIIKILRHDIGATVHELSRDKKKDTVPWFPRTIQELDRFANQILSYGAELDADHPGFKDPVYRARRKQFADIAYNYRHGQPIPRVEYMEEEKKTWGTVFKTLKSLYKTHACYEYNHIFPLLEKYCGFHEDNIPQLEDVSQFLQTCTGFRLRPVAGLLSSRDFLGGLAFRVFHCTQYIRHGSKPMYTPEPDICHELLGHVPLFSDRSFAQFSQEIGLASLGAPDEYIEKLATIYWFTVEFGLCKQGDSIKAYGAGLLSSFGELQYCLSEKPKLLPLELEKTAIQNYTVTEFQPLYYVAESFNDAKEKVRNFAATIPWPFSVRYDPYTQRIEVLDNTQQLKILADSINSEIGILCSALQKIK
The experiment is described as follows: Cell Based Phenylalanine Flux Assay. The following applies: A375 R408W cells; 24 hrs with compound, then 20 μM sepiapterin and 800 μM 13C9,15N-Phenylalanine for 4 hours; 13C-Tyrosine by LC-MS; average where tested multiple times. The method in brief: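 LC-MS quantitation of 13C-tyrosine in media gave AC50 values. Stable A375 R408W PAH cells were preincubated 24 h with compound, then fed 800 μM labelled Phe plus 20 μM sepiapterin for 4 h. Dose curves were 10-point, tested in duplicate, averaged over repeat runs.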
Consider `Cc1cccc2nc([C@@H]3c4nc[nH]c4CCN3C(=O)c3nnc(-c4ccn(C)n4)o3)oc12` [Example 869, (S)-(5-(1-methyl-1H-pyrazol-3-yl)-1,3,4-oxadiazol-2-yl)(4-(7-methylbenzo[d]oxazol-2-yl)-6,7-dihydro-1H-imidazo[4,5-c]pyridin-5(4H)-yl)methanone], for which the concentration at half-maximal activity (AC50) was not above 500 nM. The same measure, in the same setting: as for `O=C(c1cnco1)N1CCc2[nH]cnc2[C@H]1c1nc2cc(F)cc(F)c2o1` [Example 575, (S)-(4-(5,7-difluorobenzo[d]oxazol-2-yl)-6,7-dihydro-1H-imidazo[4,5-c]pyridin-5(4H)-yl)(oxazol-5-yl)methanone], the figure is 1000 to 5000 nM; as for `COc1cccc2oc([C@H]3c4nc[nH]c4CCN3C(=O)c3ocnc3C(F)F)nc12` [Example 430, (R)-(4-(difluoromethyl)oxazol-5-yl)(4-(4-methoxybenzo[d]oxazol-2-yl)-6,7-dihydro-1H-imidazo[4,5-c]pyridin-5(4H)-yl)methanone], 500 to 1000 nM. The same measure, in the same setting: under `O=C(c1ocnc1C(F)F)N1CCc2[nH]cnc2[C@@H]1c1nc2cccc(F)c2o1` [Example 900, (R)-(4-(difluoromethyl)oxazol-5-yl)(4-deuterium-4-(7-fluorobenzo[d]oxazol-2-yl)-6,7-dihydro-1H-imidazo[4,5-c]pyridin-5(4H)-yl)methanone] stands 500 to 1000 nM; under `COc1ccc2c(C(=O)N3CCc4[nH]cnc4[C@@H]3c3nc4cccc(F)c4o3)cnn2c1` [Example 326, (R)-(4-(7-fluorobenzo[d]oxazol-2-yl)-6,7-dihydro-1H-imidazo[4,5-c]pyridin-5(4H)-yl)(6-methoxypyrazolo[1,5-a]pyridin-3-yl)methanone], 1000 to 5000 nM. The same measure, in the same setting: under `O=C(c1nnc(-c2cnn(C(F)F)c2)o1)N1CCc2[nH]cnc2[C@H]1c1nc2c(F)ccc(F)c2o1` [Example 801, (S)-(4-(4,7-difluorobenzo[d]oxazol-2-yl)-6,7-dihydro-1H-imidazo[4,5-c]pyridin-5(4H)-yl)(5-(1-(difluoromethyl)-1H-pyrazol-4-yl)-1,3,4-oxadiazol-2-yl)methanone] stands not above 500 nM; under `Cc1ccc2nc([C@@H]3c4nc[nH]c4CCN3C(=O)c3ocnc3C(F)F)oc2c1` [Example 884, (S)-(4-(difluoromethyl)oxazol-5-yl)(4-(6-methylbenzo[d]oxazol-2-yl)-6,7-dihydro-1H-imidazo[4,5-c]pyridin-5(4H)-yl)methanone], not above 500 nM; under `O=C(CCc1ncco1)N1CCc2[nH]cnc2[C@H]1c1nc2c(F)cccc2o1` [Example 887, (S)-1-(4-(4-fluorobenzo[d]oxazol-2-yl)-6,7-dihydro-1H-imidazo[4,5-c]pyridin-5(4H)-yl)-3-(oxazol-2-yl)propan-1-one], 500 to 1000 nM. Take `Cc1ccc2oc([C@@H]3c4nc[nH]c4CCN3C(=O)c3nnc(-c4ccn(C)n4)o3)nc2c1` [Example 389, (S)-(5-(1-methyl-1H-pyrazol-3-yl)-1,3,4-oxadiazol-2-yl)(4-(5-methylbenzo[d]oxazol-2-yl)-6,7-dihydro-1H-imidazo[4,5-c]pyridin-5(4H)-yl)methanone]: the concentration at half-maximal activity (AC50) is not above 500 nM.

As to `Cc1cccc2nc([C@H]3c4nc[nH]c4CCN3C(=O)c3cc(C(F)F)nn3C)oc12` [Example 736], the half-maximal activity concentration (AC50) was 1000 to 5000 nM. Same read-out and setting: as for `O=C(c1nnc(-c2ccc(C(F)(F)F)cc2)o1)N1CCc2[nH]cnc2[C@H]1c1nc2cc(F)ccc2o1` [Example 90, (S)-(4-(5-fluorobenzo[d]oxazol-2-yl)-6,7-dihydro-1H-imidazo[4,5-c]pyridin-5(4H)-yl)(5-(4-(trifluoromethyl)phenyl)-1,3,4-oxadiazol-2-yl)methanone], the figure is 500 to 1000 nM; as for `O=C(c1ocnc1C(F)F)N1CCc2[nH]cnc2[C@H]1c1nc2ccc(Br)cc2o1` [Example 145, (S)-(4-(6-bromobenzo[d]oxazol-2-yl)-6,7-dihydro-1H-imidazo[4,5-c]pyridin-5(4H)-yl)(4-(difluoromethyl)oxazol-5-yl)methanone], not above 500 nM. On the same count and under the same terms, under `COc1cccc2nc([C@@H]3c4nc[nH]c4CCN3C(=O)c3ncnn3C)oc12` [Example 775, (S)-(4-(7-methoxybenzo[d]oxazol-2-yl)-6,7-dihydro-1H-imidazo[4,5-c]pyridin-5(4H)-yl)(1-methyl-1H-1,2,4-triazol-5-yl)methanone] stands 500 to 1000 nM; under `Cc1cccc2oc([C@@H]3c4nc[nH]c4CCN3C(=O)c3cnc(C(C)(C)O)o3)nc12` [Example 511, (S)-(2-(2-hydroxypropan-2-yl)oxazol-5-yl)(4-(4-methylbenzo[d]oxazol-2-yl)-6,7-dihydro-1H-imidazo[4,5-c]pyridin-5(4H)-yl)methanone], 500 to 1000 nM. The same measure, in the same setting: as for `Cn1nc(Cl)cc1C(=O)N1CCc2[nH]cnc2[C@H]1c1nc2cc(F)ccc2o1` [Example 127, (S)-(3-chloro-1-methyl-1H-pyrazol-5-yl)(4-(5-fluorobenzo[d]oxazol-2-yl)-6,7-dihydro-1H-imidazo[4,5-c]pyridin-5(4H)-yl)methanone], the figure is 500 to 1000 nM. For the compound `Nc1cn2ncc(C(=O)N3CCc4[nH]cnc4[C@@H]3c3nc4cc(F)ccc4o3)c2cc1Cl` [Example 178, (R)-(6-amino-5-chloropyrazolo[1,5-a]pyridin-3-yl)(4-(5-fluorobenzo[d]oxazol-2-yl)-6,7-dihydro-1H-imidazo[4,5-c]pyridin-5(4H)-yl)methanone], the concentration at half-maximal activity (AC50) is not below 5000 nM.

Take `Cc1nc(-c2ccccn2)oc1C(=O)N1CCc2[nH]cnc2[C@H]1c1nc2cccc(F)c2o1` [Example 594, (S)-(4-(7-fluorobenzo[d]oxazol-2-yl)-6,7-dihydro-1H-imidazo[4,5-c]pyridin-5(4H)-yl)(4-methyl-2-(pyridin-2-yl)oxazol-5-yl)methanone]: the AC50 is not above 500 nM.

As to `Cn1cc(-c2nnc(C(=O)N3CCc4[nH]cnc4[C@@H]3c3nc4cccc(C(F)(F)F)c4o3)o2)cn1` [Example 829, (R)-(5-(1-methyl-1H-pyrazol-4-yl)-1,3,4-oxadiazol-2-yl)(4-(7-(trifluoromethyl)benzo[d]oxazol-2-yl)-6,7-dihydro-1H-imidazo[4,5-c]pyridin-5(4H)-yl)methanone], the half-maximal activity concentration (AC50) was 1000 to 5000 nM. Consider `C[C@H](O)c1nc(C(F)F)c(C(=O)N2CCc3[nH]cnc3[C@@H]2c2nc3c(F)cccc3o2)o1` [Example 228, (4-(difluoromethyl)-2-((S)-1-hydroxyethyl)oxazol-5-yl)((R)-4-(4-fluorobenzo[d]oxazol-2-yl)-6,7-dihydro-1H-imidazo[4,5-c]pyridin-5(4H)-yl)methanone], for which the AC50 lay in the range of 1000 to 5000 nM.

Staying with this experiment, now noted: A375 cells expressing R408W PAH; 24 hrs with compound, then 20 μM sepiapterin and 800 μM 13C9,15N-Phenylalanine for 4 hours; 13C-Tyrosine by LC-MS; average where tested multiple times.
On to `O=C(c1nnc(-c2c[nH]nc2C(F)(F)F)o1)N1CCc2[nH]cnc2C1c1nc2cc(F)ccc2o1` (stereo not shown), for which the AC50 fell in the range of 1000 to 5000 nM. For the compound `O=C(c1cnn2cc(F)ccc12)N1CCc2[nH]cnc2C1c1nc2cc(F)ccc2o1` (stereo not shown), the concentration at half-maximal activity (AC50) was not below 5000 nM. Regarding `Cn1cc(-c2ncc(C(=O)N3CCc4[nH]cnc4C3c3nc4ccc(Br)cc4o3)o2)cn1` (stereo not shown), the AC50 is not below 5000 nM. Still for that read-out and setting: as for `O=C(c1nnc(-c2ncccc2F)o1)N1CCc2[nH]cnc2C1c1nc2cc(F)ccc2o1` (stereo not shown), the figure is 1000 to 5000 nM. Still for that read-out and setting: under `Cn1cnc(-c2nnc(C(=O)N3CCc4[nH]cnc4C3c3nc4cc(F)ccc4o3)o2)c1` (stereo not shown) stands 1000 to 5000 nM.

With `CC(C)(O)c1nc(C(F)F)c(C(=O)N2CCc3[nH]cnc3C2c2nc3cc(C#N)ccc3o2)o1` (stereo not shown), the AC50 was in the range of 1000 to 5000 nM.
